According to BigSolDB 2.1:

O=C1O[B-]2(OC1=O)OC(=O)C(=O)O2.[Li+]
solubility (mole fraction)
Conditions | 293.15 K | 303.15 K | 313.15 K | 323.15 K | 333.15 K | 343.15 K | 353.15 K | 363.15 K
in DMF | 0.114 | 0.0838 | 0.0658 | 0.0542 | 0.0404 | 0.0352 | 0.0323 | 0.023
in DMSO | 0.148 | 0.139 | 0.127 | 0.113 | 0.0989 | 0.0869 | 0.0774 | 0.0666
in THF | 0.0479 | 0.0336 | 0.0269 | 0.0217 | 0.0172 | – | – | –
in acetonitrile | 0.00893 | 0.00869 | 0.00803 | 0.00653 | 0.00566 | 0.00297 | – | –
in gamma-butyrolactone | 0.1 | 0.0796 | 0.0544 | 0.0372 | 0.0248 | 0.0163 | 0.00786 | 0.00503
in propylene carbonate | 0.0393 | – | 0.0312 | 0.0214 | 0.0106 | 0.00574 | 0.00218 | 0.00132
